Source: publication PMC11702208 (RSC Advances, 2025)
“And” between values parts separate entries of the source, which are not always exact repeats. Equal values may be shown once. Read-outs that look alike come from different tables or passages of the source.

Legend:
[1] = tested on: HS 578T; assay: NCI cytotoxicity screen; format: cell-based, human; conditions: for GI50: Homo sapiens, Hs-578T
[2] = tested on: ACHN; assay: NCI cytotoxicity screen; format: cell-based, human; conditions: for GI50: Homo sapiens
[3] = tested on: SK-OV-3; assay: NCI cytotoxicity screen; format: cell-based, human
[4] = tested on: MOLT-4; assay: NCI cytotoxicity screen; format: cell-based, human; conditions: for GI50: Homo sapiens
[5] = tested on: NCI-H522; assay: NCI cytotoxicity screen; format: cell-based, human
[6] = tested on: SK-MEL-28; assay: NCI cytotoxicity screen; format: cell-based, human; conditions: for GI50: Homo sapiens
[7] = target: HER2 (Homo sapiens, UniProt P04626); assay: HER2 tyrosine kinase assay; format: biochemical; conditions: IC50 HER2 inhibition
[8] = tested on: M14; assay: NCI cytotoxicity screen; format: cell-based, human; conditions: for GI50: Homo sapiens
[9] = tested on: HL-60(TB); conditions: 10.0 μM one dose
[10] = tested on: 786-0; assay: NCI cytotoxicity screen; format: cell-based, human; conditions: for GI50: Homo sapiens
[11] = tested on: U251; assay: NCI cytotoxicity screen; format: cell-based, human; conditions: U-251; for GI50: Homo sapiens
[12] = tested on: SK-MEL-5; assay: NCI cytotoxicity screen; format: cell-based, human; conditions: for GI50: Homo sapiens
[13] = tested on: Melanoma subpanel tumor cell lines; assay: NCI cytotoxicity screen, subpanel; format: cell-based, human; conditions: for GI50 / TGI: subpanel value, Melanoma
[14] = tested on: K-562; conditions: 10.0 μM one dose
[15] = tested on: Breast cancer subpanel tumor cell lines; assay: NCI cytotoxicity screen, subpanel; format: cell-based, human; conditions: for GI50 / TGI: subpanel value, Breast cancer
[16] = target: CDK9 (Homo sapiens, UniProt P50750); assay: biochemical; conditions: IC50 CDK9 inhibition
[17] = tested on: KM12; assay: NCI cytotoxicity screen; format: cell-based, human; conditions: for GI50: Homo sapiens, KM12
[18] = target: EGFR (Homo sapiens, UniProt P00533); assay: biochemical; conditions: IC50 EGFR inhibition
[19] = tested on: T-47D cells; assay: Cell cycle analysis; format: cell-based; conditions: compound at IC50 concentration
[20] = tested on: RXF 393; assay: NCI cytotoxicity screen; format: cell-based, human; conditions: for GI50: Homo sapiens
[21] = tested on: CCRF-CEM; assay: NCI cytotoxicity screen; format: cell-based, human; conditions: for GI50: Homo sapiens
[22] = tested on: Renal cancer subpanel tumor cell lines; assay: NCI cytotoxicity screen, subpanel; format: cell-based, human
[23] = tested on: LOX IMVI; assay: NCI cytotoxicity screen; format: cell-based, human; conditions: for GI50: Homo sapiens
[24] = tested on: UACC-257; assay: NCI cytotoxicity screen; format: cell-based, human
[25] = tested on: DU-145; assay: NCI cytotoxicity screen; format: cell-based, human; conditions: for GI50: Homo sapiens
[26] = tested on: 59 cancer cell lines; assay: NCI cytotoxicity screen, full panel; format: cell-based, human
[27] = tested on: A549/ATCC; assay: NCI cytotoxicity screen; format: cell-based, human; conditions: for GI50: Homo sapiens, A549
[28] = tested on: RPMI-8226; assay: NCI cytotoxicity screen; format: cell-based, human; conditions: for GI50: Homo sapiens
[29] = tested on: Leukemia subpanel tumor cell lines; assay: NCI cytotoxicity screen, subpanel; format: cell-based, human; conditions: for GI50 / TGI: subpanel value, Leukemia
[30] = tested on: Ovarian cancer subpanel tumor cell lines; assay: NCI cytotoxicity screen, subpanel; format: cell-based, human; conditions: for GI50 / TGI: subpanel value, Ovarian cancer
[31] = target: T1, COX-2 (Ovis aries, UniProt P79208); assay: Colorimetric COX; format: biochemical, ovine
T1 sequence (P79208 17-603): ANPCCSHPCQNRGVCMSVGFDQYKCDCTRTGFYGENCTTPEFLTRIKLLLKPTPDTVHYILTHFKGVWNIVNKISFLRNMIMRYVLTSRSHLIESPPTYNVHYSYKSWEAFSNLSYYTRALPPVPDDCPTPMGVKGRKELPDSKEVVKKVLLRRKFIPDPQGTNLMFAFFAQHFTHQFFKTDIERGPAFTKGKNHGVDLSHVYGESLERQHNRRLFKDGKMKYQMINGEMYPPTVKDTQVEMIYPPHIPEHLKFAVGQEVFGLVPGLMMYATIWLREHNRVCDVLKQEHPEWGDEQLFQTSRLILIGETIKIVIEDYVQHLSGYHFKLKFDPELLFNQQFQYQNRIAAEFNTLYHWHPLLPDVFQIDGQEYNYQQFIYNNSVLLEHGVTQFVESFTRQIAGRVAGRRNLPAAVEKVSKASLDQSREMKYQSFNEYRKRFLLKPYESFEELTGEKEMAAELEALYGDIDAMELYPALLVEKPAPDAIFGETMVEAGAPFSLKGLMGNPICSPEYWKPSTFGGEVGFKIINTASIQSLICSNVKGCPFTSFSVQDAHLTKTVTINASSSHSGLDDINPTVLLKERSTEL

[32] = tested on: A498; assay: NCI cytotoxicity screen; format: cell-based, human; conditions: Homo sapiens, A498
[33] = Homo sapiens, read-out: LC50 MG_MID, full panel mean-graph midpoint
[34] = read-out: GI50 MG_MID, full panel mean-graph midpoint

Sequence of HER2 (P04626 23-1255): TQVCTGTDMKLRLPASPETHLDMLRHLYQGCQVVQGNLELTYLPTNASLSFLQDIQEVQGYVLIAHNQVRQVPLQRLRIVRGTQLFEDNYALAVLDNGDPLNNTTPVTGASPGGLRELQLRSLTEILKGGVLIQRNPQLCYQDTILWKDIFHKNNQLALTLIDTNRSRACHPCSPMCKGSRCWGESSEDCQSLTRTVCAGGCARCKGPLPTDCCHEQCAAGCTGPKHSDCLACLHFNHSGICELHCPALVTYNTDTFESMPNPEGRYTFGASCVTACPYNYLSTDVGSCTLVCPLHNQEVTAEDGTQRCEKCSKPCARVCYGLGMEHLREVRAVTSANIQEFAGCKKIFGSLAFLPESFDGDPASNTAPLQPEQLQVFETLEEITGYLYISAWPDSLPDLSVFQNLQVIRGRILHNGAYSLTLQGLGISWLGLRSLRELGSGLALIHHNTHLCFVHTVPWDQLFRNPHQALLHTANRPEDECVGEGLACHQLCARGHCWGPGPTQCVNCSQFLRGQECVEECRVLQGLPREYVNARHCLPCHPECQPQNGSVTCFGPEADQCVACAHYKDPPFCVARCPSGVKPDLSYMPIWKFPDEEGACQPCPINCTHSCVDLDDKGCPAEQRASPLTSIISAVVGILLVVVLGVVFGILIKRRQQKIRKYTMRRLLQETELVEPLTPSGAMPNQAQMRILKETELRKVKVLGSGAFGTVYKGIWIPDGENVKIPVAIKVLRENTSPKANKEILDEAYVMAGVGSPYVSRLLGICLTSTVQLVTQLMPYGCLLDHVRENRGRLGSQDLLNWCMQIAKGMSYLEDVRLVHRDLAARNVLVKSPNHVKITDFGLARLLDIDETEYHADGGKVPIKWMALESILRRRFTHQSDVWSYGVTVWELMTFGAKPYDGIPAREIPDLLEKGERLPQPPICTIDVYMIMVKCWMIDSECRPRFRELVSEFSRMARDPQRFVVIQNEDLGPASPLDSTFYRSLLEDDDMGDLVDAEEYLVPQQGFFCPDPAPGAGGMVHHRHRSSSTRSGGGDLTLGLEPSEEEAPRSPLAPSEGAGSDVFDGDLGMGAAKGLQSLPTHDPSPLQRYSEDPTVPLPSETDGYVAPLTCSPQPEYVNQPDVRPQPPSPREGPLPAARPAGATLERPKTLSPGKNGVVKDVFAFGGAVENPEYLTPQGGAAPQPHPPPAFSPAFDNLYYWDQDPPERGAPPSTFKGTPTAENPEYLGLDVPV
Sequence of EGFR (P00533 25-1210): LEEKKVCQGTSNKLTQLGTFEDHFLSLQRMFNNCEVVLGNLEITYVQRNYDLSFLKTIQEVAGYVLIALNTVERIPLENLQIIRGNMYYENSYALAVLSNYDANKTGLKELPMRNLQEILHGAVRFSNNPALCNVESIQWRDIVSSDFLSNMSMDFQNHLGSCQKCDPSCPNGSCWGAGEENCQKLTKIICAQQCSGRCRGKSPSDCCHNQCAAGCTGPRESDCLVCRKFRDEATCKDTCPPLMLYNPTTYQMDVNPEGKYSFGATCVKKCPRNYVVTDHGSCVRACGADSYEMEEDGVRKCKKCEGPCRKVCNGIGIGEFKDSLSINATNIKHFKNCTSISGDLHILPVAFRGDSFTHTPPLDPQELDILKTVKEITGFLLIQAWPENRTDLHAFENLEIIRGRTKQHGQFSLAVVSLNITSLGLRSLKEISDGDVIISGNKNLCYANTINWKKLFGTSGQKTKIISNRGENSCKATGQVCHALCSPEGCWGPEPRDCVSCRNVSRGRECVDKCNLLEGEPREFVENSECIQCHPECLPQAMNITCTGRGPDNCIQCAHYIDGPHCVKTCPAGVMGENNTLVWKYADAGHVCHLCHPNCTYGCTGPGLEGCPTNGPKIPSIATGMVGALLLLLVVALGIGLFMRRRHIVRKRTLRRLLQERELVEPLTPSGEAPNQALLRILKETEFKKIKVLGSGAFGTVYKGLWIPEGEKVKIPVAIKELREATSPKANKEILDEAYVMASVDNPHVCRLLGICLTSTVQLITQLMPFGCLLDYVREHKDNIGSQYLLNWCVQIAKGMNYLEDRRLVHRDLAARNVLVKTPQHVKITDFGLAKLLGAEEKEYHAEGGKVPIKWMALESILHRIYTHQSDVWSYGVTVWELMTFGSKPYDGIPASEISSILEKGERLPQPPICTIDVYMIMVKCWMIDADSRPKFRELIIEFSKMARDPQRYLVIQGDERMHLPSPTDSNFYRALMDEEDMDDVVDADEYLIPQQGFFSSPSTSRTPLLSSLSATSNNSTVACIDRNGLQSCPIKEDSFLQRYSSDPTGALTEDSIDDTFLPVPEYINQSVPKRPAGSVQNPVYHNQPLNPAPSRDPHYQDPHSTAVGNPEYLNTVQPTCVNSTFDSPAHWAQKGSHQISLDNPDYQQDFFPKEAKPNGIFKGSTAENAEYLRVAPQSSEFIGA
Sequence of CDK9 (P50750 whole entry): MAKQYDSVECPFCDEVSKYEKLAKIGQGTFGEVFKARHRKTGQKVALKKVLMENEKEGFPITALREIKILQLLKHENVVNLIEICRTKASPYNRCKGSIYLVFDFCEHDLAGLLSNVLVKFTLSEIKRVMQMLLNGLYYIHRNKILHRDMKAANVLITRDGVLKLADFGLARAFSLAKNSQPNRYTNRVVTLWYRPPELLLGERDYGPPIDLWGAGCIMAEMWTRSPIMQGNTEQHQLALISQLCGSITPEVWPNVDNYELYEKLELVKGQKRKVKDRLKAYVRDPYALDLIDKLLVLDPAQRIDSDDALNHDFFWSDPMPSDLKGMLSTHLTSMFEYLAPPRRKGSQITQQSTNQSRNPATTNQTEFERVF
Sequence of CDK9 (O60563 whole entry partner): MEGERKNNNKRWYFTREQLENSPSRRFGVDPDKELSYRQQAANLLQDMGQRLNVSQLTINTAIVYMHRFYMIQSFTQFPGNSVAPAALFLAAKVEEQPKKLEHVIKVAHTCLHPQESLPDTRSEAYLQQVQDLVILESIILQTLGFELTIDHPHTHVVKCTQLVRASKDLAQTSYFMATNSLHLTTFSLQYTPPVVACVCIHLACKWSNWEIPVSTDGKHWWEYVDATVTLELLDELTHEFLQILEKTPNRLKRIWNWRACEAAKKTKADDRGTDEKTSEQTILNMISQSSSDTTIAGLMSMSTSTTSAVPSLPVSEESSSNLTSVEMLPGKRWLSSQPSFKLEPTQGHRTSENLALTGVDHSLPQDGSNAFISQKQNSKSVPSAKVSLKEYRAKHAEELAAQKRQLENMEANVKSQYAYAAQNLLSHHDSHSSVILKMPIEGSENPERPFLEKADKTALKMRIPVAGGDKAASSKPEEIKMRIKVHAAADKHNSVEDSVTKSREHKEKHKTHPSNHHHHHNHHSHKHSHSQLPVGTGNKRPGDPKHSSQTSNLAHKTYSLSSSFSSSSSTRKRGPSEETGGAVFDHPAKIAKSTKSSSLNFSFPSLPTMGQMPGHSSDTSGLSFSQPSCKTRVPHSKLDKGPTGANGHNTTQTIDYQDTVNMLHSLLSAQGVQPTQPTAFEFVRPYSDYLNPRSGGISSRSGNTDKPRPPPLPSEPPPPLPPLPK

SMILES: CCN(CC)c1ccc(C=NNC(=O)CSc2nc3ccccc3c(=O)n2Cc2ccc(S(N)(=O)=O)cc2)c(O)c1 [Compound 5, 4-((2-((2-(2-(4-(Diethylamino)-2-hydroxybenzylidene)hydrazineyl)-2-oxoethyl)thio)-4-oxoquinazolin-3(4H)-yl)methyl)benzenesulfonamide]
- GI % ([1]; 10.0 μM one dose, HS-578T): 37%
- GI50 [1]: 2110 nM
- GI % ([2]; 10.0 μM one dose): 67%
- GI50 [2]: 1580 nM
- GI % ([3]; 10.0 μM one dose): 79%
- GI50 ([3]; Homo sapiens): 1320 nM
- GI % ([4]; 10.0 μM one dose): 89%
- GI50 [4]: 372 nM
- GI % ([5]; 10.0 μM one dose): 126%
- GI50 ([5]; Homo sapiens): 2400 nM
- GI % ([6]; 10.0 μM one dose): 67%
- GI50 [6]: 1620 nM
- IC50 [7]: 53.9 nM
- GI % ([8]; 10.0 μM one dose): 96%
- GI50 [8]: 452 nM
- GI % [9]: 120%
- GI % ([10]; 10.0 μM one dose): 68%
- GI50 [10]: 1840 nM
- GI % ([11]; 10.0 μM one dose): 76%
- GI50 [11]: 510 nM
- GI % ([12]; 10.0 μM one dose): 95%
- GI50 [12]: 1570 nM
- CC50 ([13]; Homo sapiens, read-out: LC50): > 100000 nM
- GI50 ([13]; Homo sapiens): 1500 nM
- GI50 [13]: 1500 nM
- TGI [13]: 59090 nM
- GI % [14]: 94%
- CC50 ([15]; Homo sapiens, read-out: LC50): > 100000 nM
- GI50 ([15]; Homo sapiens): 1200 nM
- GI50 [15]: 1230 nM
- TGI [15]: 84170 nM
- IC50 [16]: 147 ± 3.6 nM
- GI % ([17]; 10.0 μM one dose, KM-12): 85%
- GI50 [17]: 569 nM
- IC50 [18]: 84.4 nM
- %G0-G1 [19]: 46.31%
- %G2-M [19]: 26.3%
- %S [19]: 20.9%
- %G2-M ([19]; listed as Five): 26.27%
- %S ([19]; listed as Five): 27.42%
- GI % ([20]; 10.0 μM one dose): 58%
- GI50 [20]: 2500 nM
- GI % ([21]; 10.0 μM one dose): 90%
- GI50 [21]: 196 nM
- CC50 ([22]; Homo sapiens, read-out: LC50): > 100000 nM
- GI50 ([22]; Homo sapiens, subpanel value, Renal cancer): 1900 nM
- GI50 ([22]; subpanel value, Renal cancer): 1920 nM
- TGI ([22]; subpanel value, Renal cancer): 91540 nM
- GI % ([23]; 10.0 μM one dose): 99%
- GI50 [23]: 387 nM
- GI % ([24]; 10.0 μM one dose): 87%
- GI50 ([24]; Homo sapiens): 3030 nM
- GI % ([25]; 10.0 μM one dose): 62%
- GI50 [25]: 944 nM
- MG% (mean growth percent) ([26]; 10.0 μM one dose, 59 cell lines): 23.5% and 23.46%
- GI50 ([26]; Homo sapiens, read-out: GI50 MG_MID, full panel mean-graph midpoint): 1000 nM
- CC50 [26, 33]: > 100000 nM
- TGI MG_MID ([26]; full panel mean-graph midpoint): 89200 nM and 89240 nM
- GI50 [26, 34]: 1100 nM
- CC50 ([26]; read-out: LC50 MG_MID, full panel mean-graph midpoint): > 100000 nM
- GI % ([27]; 10.0 μM one dose, A549/ATCC): 71%
- GI50 [27]: 1570 nM
- GI % ([28]; 10.0 μM one dose): 83%
- GI50 [28]: 521 nM
- CC50 ([29]; Homo sapiens, read-out: LC50): > 100000 nM
- GI50 ([29]; Homo sapiens): 400 nM
- GI50 [29]: 384 nM
- TGI [29]: 68371 nM
- CC50 ([30]; Homo sapiens, read-out: LC50): > 100000 nM
- GI50 ([30]; Homo sapiens): 15100 nM
- GI50 [30]: 15100 nM
- TGI [30]: c (Compounds showed values > 100 μM)
- IC50 [31]: 3320 ± 60 nM

SMILES: COc1cc2ncnc(Nc3ccc(F)c(Cl)c3)c2cc1OCCCN1CCOCC1 [Gefitinib, reference compound]
- GI50 [1]: 10000 nM
- GI50 [2]: 200 nM
- GI50 [4]: 3980 nM
- GI50 [6]: 310 nM
- GI50 [8]: 5010 nM
- GI50 [32]: 400 nM
- GI50 [10]: 7940 nM
- GI50 [11]: 10000 nM
- GI50 [12]: 3980 nM
- GI50 ([13]; Homo sapiens): 3700 nM
- GI50 [13]: 3680 nM
- TGI [13]: 12490 nM
- GI50 ([15]; Homo sapiens): 4700 nM
- GI50 [15]: 4670 nM
- TGI [15]: 18620 nM
- GI50 [17]: 7940 nM
- GI50 [20]: 5010 nM
- GI50 [21]: 5010 nM
- GI50 [23]: 7940 nM
- GI50 [25]: 2510 nM
- CC50 [26, 33]: 95600 nM
- TGI MG_MID ([26]; full panel mean-graph midpoint): 14300 nM
- TGI MG_MID ([26]; full panel mean-graph midpoint, listed as gefitinib): 66300 nM
- GI50 [26, 34]: 2100 nM
- GI50 ([26]; read-out: GI50 MG_MID, full panel mean-graph midpoint, listed as gefitinib): 7700 nM
- GI50 [27]: 7940 nM
- GI50 [28]: 1580 nM
- GI50 ([29]; Homo sapiens): 2600 nM
- GI50 [29]: 2560 nM
- TGI [29]: 12070 nM
- GI50 ([30]; Homo sapiens): 3300 nM
- GI50 [30]: 3050 nM
- TGI [30]: 33290 nM
